Consider five compounds from US12281149B2, “Modulators of G-protein coupled receptors” (priority 2021, dated 2025).

Structures are written as SMILES. *1 amine or outer side, *2 acyl side, *3 side chain or, on linkers, in order; H or OH if unused. Where a SMILES comes first, the peptide text is derived from it. Side-chain parts run from the residue outwards. [ ]: non-standard residue; d: D form. The star is where a group is joined. Isobutyryl(2-(3-CN-5-F-Ph)) = CC(C)(C(=O)*)c1cc(F)cc(C#N)c1; C20 diacid = O=C(O)CCCCCCCCCCCCCCCCCCC(=O)*; γGlu = O=C(O)[C@H](CCC(=O)[*:2])N[*:1]; X15 = O=C(C1(c2cccc(F)c2)CC1)*; X41 = C[C@H](C(=O)*)c1ccccc1; AEEA = NCCOCCOCC(=O)O; Aib = CC(C)(N)C(=O)O; βAla = NCCC(=O)O A value given as a limit tells only on which side of the number the result lay.

Format in all cases: cell-based
Experiment [1] deals with T1, GLP-1 receptor (Homo sapiens, UniProt P43220). Briefly: PathHunter β-arrestin assay, GLP-1 receptor. Also on record: host or cells: PathHunter CHO-K1 GLP1R β-Arrestin Cell Line. As to conditions: β-arrestin-2 recruitment, PathHunter CHO-K1 GLP1R β-Arrestin Cell Line, 90 min at 37° C.; normalized to GLP-1; read-out: GLP-1R β Arrestin EC50. (Recruitment of arrestin is a read-out of receptor activation apart from second messengers.)

Experiment [2] deals with T2, GIP receptor (Homo sapiens, UniProt P48546).
T2 sequence (P48546 22-466): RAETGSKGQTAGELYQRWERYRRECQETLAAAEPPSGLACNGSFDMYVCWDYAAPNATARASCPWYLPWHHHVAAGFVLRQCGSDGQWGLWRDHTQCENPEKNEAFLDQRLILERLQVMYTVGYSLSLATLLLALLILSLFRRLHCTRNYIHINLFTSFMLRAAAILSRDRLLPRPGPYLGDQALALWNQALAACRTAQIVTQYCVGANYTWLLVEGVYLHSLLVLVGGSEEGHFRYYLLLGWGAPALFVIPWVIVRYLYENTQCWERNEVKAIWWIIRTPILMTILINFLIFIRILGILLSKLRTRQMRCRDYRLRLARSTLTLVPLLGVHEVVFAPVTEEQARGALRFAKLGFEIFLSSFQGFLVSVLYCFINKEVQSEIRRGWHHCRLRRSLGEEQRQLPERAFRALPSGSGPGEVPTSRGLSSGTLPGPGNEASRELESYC
As to the kind of experiment: HitHunter cAMP assay, GIP receptor. As to conditions: for EC50: CHO cells stably expressing GIP receptor, cAMP accumulation, 30 min, read-out: EC50 GIP-1R; for Emax: CHO cells, cAMP, normalized to maximum signal from GIP (high) and DMSO (low), read-out: Emax GIP-1R. In general terms: cAMP levels reflect the balance of adenylyl cyclase and phosphodiesterase activity.

In experiment [3] the target is T1, GLP-1 receptor. As to the kind of experiment: HitHunter cAMP assay, GLP-1 receptor. As to conditions: for EC50: CHO cells stably expressing human GLP-1 receptor, cAMP accumulation, 30 min, read-out: EC50 GLP-1R; for Emax: CHO cells, cAMP, normalized to maximum signal from GLP-1 (high) and DMSO (low), read-out: Emax GLP-1R.
Experiment [4] concerns the target T2, GIP receptor. As to the kind of experiment: PathHunter β-arrestin assay, GIP receptor. As to conditions: β-arrestin-2 recruitment, PathHunter CHO-K1 GIPR β-Arrestin Cell Line, 90 min at 37° C.; normalized to GIP; read-out: GIPR β Arrestin EC50. Also on record: host or cells: PathHunter CHO-K1 GIPR β-Arrestin Cell Line.

T1 sequence (P43220 24-463): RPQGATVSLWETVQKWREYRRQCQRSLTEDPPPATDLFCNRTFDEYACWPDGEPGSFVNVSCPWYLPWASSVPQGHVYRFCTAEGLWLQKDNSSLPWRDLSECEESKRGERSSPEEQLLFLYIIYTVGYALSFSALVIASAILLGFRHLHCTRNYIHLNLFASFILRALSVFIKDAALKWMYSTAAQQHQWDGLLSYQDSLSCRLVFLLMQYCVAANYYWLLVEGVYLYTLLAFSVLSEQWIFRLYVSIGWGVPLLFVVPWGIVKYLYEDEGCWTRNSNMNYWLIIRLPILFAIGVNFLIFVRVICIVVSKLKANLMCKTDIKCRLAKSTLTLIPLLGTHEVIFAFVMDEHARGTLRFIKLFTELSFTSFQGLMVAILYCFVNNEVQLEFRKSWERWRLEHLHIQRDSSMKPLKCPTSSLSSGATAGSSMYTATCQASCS

For the compound `CC[C@H](C)[C@H](NC(=O)[C@H](CC(C)C)NC(=O)[C@H](Cc1c[nH]c2ccccc12)NC(=O)[C@H](CCC(N)=O)NC(=O)[C@@H](NC(=O)[C@H](Cc1ccccc1)NC(=O)[C@H](C)NC(=O)[C@H](CCCCNC(=O)COCCOCCNC(=O)COCCOCCNC(=O)CC[C@H](NC(=O)CCCCCCCCCCCCCCCCCCC(=O)O)C(=O)O)NC(=O)[C@H](CCC(N)=O)NC(=O)[C@H](C)NC(=O)[C@@H](NC(=O)[C@H](CCCCN)NC(=O)[C@H](CC(=O)O)NC(=O)[C@H](CC(C)C)NC(=O)C(C)(C)NC(=O)[C@@H](NC(=O)[C@H](CO)NC(=O)[C@H](Cc1ccc(O)cc1)NC(=O)[C@H](CC(=O)O)NC(=O)[C@H](CO)NC(=O)[C@@H](NC(=O)[C@H](Cc1ccccc1)NC(=O)[C@@H](NC(=O)CNC(=O)[C@H](CCC(=O)O)NC(=O)CCNC(=O)[C@@H](C)c1ccccc1)[C@@H](C)O)[C@@H](C)O)[C@@H](C)CC)[C@@H](C)CC)C(C)C)C(=O)N[C@@H](C)C(=O)NCC(=O)NCC(=O)N1CCC[C@H]1C(=O)N[C@@H](CO)C(=O)N[C@@H](CO)C(=O)NCC(=O)N[C@@H](C)C(=O)N1CCC[C@H]1C(=O)N1CCC[C@H]1C(=O)N1CCC[C@H]1C(=O)N[C@@H](CO)C(N)=O` [Compound 211] ({X41-βAla}-EGTFTSDYSI[Aib]LDKIAQK([AEEA-AEEA-γGlu-C20 diacid])AFVQWLIAGGPSSGAPPPS-NH2), the EC50 (in general, the concentration giving half of the maximal effect) was above 1000 nM on GLP-1 receptor [1], 10 to 100 nM at GIP receptor [2], 0.1 to 1 nM on GLP-1 receptor [3] and above 1000 nM at GIP receptor [4]. The Emax (usually the maximal effect, on the per cent scale that the assay sets) on GIP receptor [2] came to 103%; at GLP-1 receptor [3] it was 107%.

For `CC[C@H](C)[C@H](NC(=O)[C@H](CO)NC(=O)[C@H](Cc1ccc(O)cc1)NC(=O)[C@H](CC(=O)O)NC(=O)[C@H](CO)NC(=O)[C@@H](NC(=O)[C@H](Cc1ccccc1)NC(=O)[C@@H](NC(=O)CNC(=O)[C@H](CCC(=O)O)NC(=O)CCNC(=O)C1(c2ccccc2)CCC(=O)NC1)[C@@H](C)O)[C@@H](C)O)C(=O)N[C@@H](Cc1ccc(O)cc1)C(=O)N[C@@H](CC(C)C)C(=O)N[C@@H](CC(=O)O)C(=O)N[C@@H](CCCCN)C(=O)N[C@@H](CCC(N)=O)C(=O)N[C@@H](C)C(=O)N[C@@H](C)C(=O)NC(C)(C)C(=O)N[C@@H](CCC(=O)O)C(=O)N[C@@H](Cc1ccccc1)C(=O)N[C@H](C(=O)N[C@@H](CC(N)=O)C(=O)N[C@@H](Cc1c[nH]c2ccccc12)C(=O)N[C@@H](CC(C)C)C(=O)N[C@@H](CC(C)C)C(=O)N[C@@H](C)C(=O)NCC(=O)NCC(=O)N1CCC[C@H]1C(=O)N[C@@H](CO)C(=O)N[C@@H](CO)C(=O)NCC(=O)N[C@@H](C)C(=O)N1CCC[C@H]1C(=O)N1CCC[C@H]1C(=O)N1CCC[C@H]1C(=O)N[C@@H](CO)C(=O)N[C@@H](CCCCNC(=O)COCCOCCNC(=O)COCCOCCNC(=O)CC[C@H](NC(=O)CCCCCCCCCCCCCCCCCCC(=O)O)C(=O)O)C(N)=O)C(C)C` (stereo partly drawn) [Compound 156], the concentration for a half-maximal effect (EC50) is above 1000 nM at GLP-1 receptor [1], 1 to 10 nM at GIP receptor [2], 1 to 10 nM on GLP-1 receptor [3] and above 1000 nM on GIP receptor [4]. For the same compound, the Emax on GIP receptor [2] and at GLP-1 receptor [3] was 95% throughout.

Consider `CC[C@H](C)[C@H](NC(=O)[C@H](CC(C)C)NC(=O)[C@H](Cc1c[nH]c2ccccc12)NC(=O)[C@H](CCC(N)=O)NC(=O)[C@@H](NC(=O)[C@H](Cc1ccccc1)NC(=O)[C@H](C)NC(=O)[C@H](CCCCNC(=O)COCCOCCNC(=O)COCCOCCNC(=O)CC[C@H](NC(=O)CCCCCCCCCCCCCCCCCCC(=O)O)C(=O)O)NC(=O)[C@H](CCC(N)=O)NC(=O)[C@H](C)NC(=O)[C@@H](NC(=O)[C@H](CCCCN)NC(=O)[C@H](CC(=O)O)NC(=O)[C@H](CC(C)C)NC(=O)C(C)(C)NC(=O)[C@@H](NC(=O)[C@H](CO)NC(=O)[C@H](Cc1ccc(O)cc1)NC(=O)[C@H](CC(=O)O)NC(=O)[C@H](CO)NC(=O)[C@@H](NC(=O)[C@H](Cc1ccccc1)NC(=O)[C@@H](NC(=O)CNC(=O)[C@@H](CCC(=O)O)NC(=O)CCNC(=O)C(C)(C)c1cc(F)cc(C#N)c1)[C@@H](C)O)[C@@H](C)O)[C@@H](C)CC)[C@@H](C)CC)C(C)C)C(=O)N[C@@H](C)C(=O)NCC(=O)NCC(=O)N1CCC[C@H]1C(=O)N[C@@H](CO)C(=O)N[C@@H](CO)C(=O)NCC(=O)N[C@@H](C)C(=O)N1CCC[C@H]1C(=O)N1CCC[C@H]1C(=O)N1CCC[C@H]1C(=O)N[C@@H](CO)C(N)=O` [Compound 109] ({Isobutyryl(2-(3-CN-5-F-Ph))-βAla}-[dE]GTFTSDYSI[Aib]LDKIAQK([AEEA-AEEA-γGlu-C20 diacid])AFVQWLIAGGPSSGAPPPS-NH2), for which the concentration giving a half-maximal response (EC50) at GLP-1 receptor [1] was above 1000 nM; on GIP receptor [2] it was 10 to 100 nM; on GLP-1 receptor [3], 10 to 100 nM; on GIP receptor [4] it was above 1000 nM. Also, the Emax at GIP receptor [2] was determined as 96%; on GLP-1 receptor [3], 82%.

As for `CC[C@H](C)[C@H](NC(=O)[C@H](CC(C)C)NC(=O)[C@H](Cc1c[nH]c2ccccc12)NC(=O)[C@H](CCC(N)=O)NC(=O)[C@@H](NC(=O)[C@H](Cc1ccccc1)NC(=O)[C@H](C)NC(=O)[C@H](CCCCNC(=O)COCCOCCNC(=O)COCCOCCNC(=O)CC[C@H](NC(=O)CCCCCCCCCCCCCCCCCCC(=O)O)C(=O)O)NC(=O)[C@H](CCC(N)=O)NC(=O)[C@H](C)NC(=O)[C@@H](NC(=O)[C@H](CCCCN)NC(=O)[C@H](CC(=O)O)NC(=O)[C@H](CC(C)C)NC(=O)C(C)(C)NC(=O)[C@@H](NC(=O)[C@H](CO)NC(=O)[C@H](Cc1ccc(O)cc1)NC(=O)[C@H](CC(=O)O)NC(=O)[C@H](CO)NC(=O)[C@@H](NC(=O)[C@H](Cc1ccccc1)NC(=O)[C@@H](NC(=O)CNC(=O)[C@H](CCC(=O)O)NC(=O)CCNC(=O)C1(c2cccc(F)c2)CC1)[C@@H](C)O)[C@@H](C)O)[C@@H](C)CC)[C@@H](C)CC)C(C)C)C(=O)N[C@@H](C)C(=O)NCC(=O)NCC(=O)N1CCC[C@H]1C(=O)N[C@@H](CO)C(=O)N[C@@H](CO)C(=O)NCC(=O)N[C@@H](C)C(=O)N1CCC[C@H]1C(=O)N1CCC[C@H]1C(=O)N1CCC[C@H]1C(=O)N[C@@H](CO)C(N)=O` [Compound 206] ({X15-βAla}-EGTFTSDYSI[Aib]LDKIAQK([AEEA-AEEA-γGlu-C20 diacid])AFVQWLIAGGPSSGAPPPS-NH2), the EC50 on GLP-1 receptor [1] was above 1000 nM; on GIP receptor [2], 10 to 100 nM; on GLP-1 receptor [3] it was 1 to 10 nM; at GIP receptor [4] it was above 1000 nM. For the same compound, the maximal effect (Emax) came to 106% on GIP receptor [2] and 98% at GLP-1 receptor [3].

`CC[C@H](C)[C@H](NC(=O)[C@H](CO)NC(=O)[C@H](Cc1ccc(O)cc1)NC(=O)[C@H](CC(=O)O)NC(=O)[C@H](CO)NC(=O)[C@@H](NC(=O)[C@H](Cc1ccccc1)NC(=O)[C@@H](NC(=O)CNC(=O)[C@H](CCC(=O)O)NC(=O)CCNC(=O)C1(n2cccn2)CCOC(C)C1)[C@@H](C)O)[C@@H](C)O)C(=O)N[C@@H](Cc1ccc(O)cc1)C(=O)N[C@@H](CC(C)C)C(=O)N[C@@H](CC(=O)O)C(=O)N[C@@H](CCCCN)C(=O)N[C@@H](CCC(N)=O)C(=O)N[C@@H](C)C(=O)N[C@@H](C)C(=O)NC(C)(C)C(=O)N[C@@H](CCC(=O)O)C(=O)N[C@@H](Cc1ccccc1)C(=O)N[C@H](C(=O)N[C@@H](CC(N)=O)C(=O)N[C@@H](Cc1c[nH]c2ccccc12)C(=O)N[C@@H](CC(C)C)C(=O)N[C@@H](CC(C)C)C(=O)N[C@@H](C)C(=O)NCC(=O)NCC(=O)N1CCC[C@H]1C(=O)N[C@@H](CO)C(=O)N[C@@H](CO)C(=O)NCC(=O)N[C@@H](C)C(=O)N1CCC[C@H]1C(=O)N1CCC[C@H]1C(=O)N1CCC[C@H]1C(=O)N[C@@H](CO)C(=O)N[C@@H](CCCCNC(=O)COCCOCCNC(=O)COCCOCCNC(=O)CC[C@H](NC(=O)CCCCCCCCCCCCCCCCCCC(=O)O)C(=O)O)C(N)=O)C(C)C` (stereo partly drawn) [Compound 101]: the concentration giving a half-maximal response (EC50) at GLP-1 receptor [1] was above 1000 nM; at GIP receptor [2], 10 to 100 nM; on GLP-1 receptor [3], 1 to 10 nM; at GIP receptor [4] it was above 1000 nM. In addition, the figures for the maximum response (Emax) on GIP receptor [2] and at GLP-1 receptor [3] were 96% and 93%, respectively.
